We go through 1 compound from patent US9096532B2, “Pyrazole inhibitors of COX-2 and sEH” (The Regents of the University of California, priority 2010, dated 2015).

One test concerns the target T1, ovine COX-1 (Ovis aries, UniProt P05979).
T1 construct: purchased Cayman Chemical 700100
T1 sequence (P05979 25-600): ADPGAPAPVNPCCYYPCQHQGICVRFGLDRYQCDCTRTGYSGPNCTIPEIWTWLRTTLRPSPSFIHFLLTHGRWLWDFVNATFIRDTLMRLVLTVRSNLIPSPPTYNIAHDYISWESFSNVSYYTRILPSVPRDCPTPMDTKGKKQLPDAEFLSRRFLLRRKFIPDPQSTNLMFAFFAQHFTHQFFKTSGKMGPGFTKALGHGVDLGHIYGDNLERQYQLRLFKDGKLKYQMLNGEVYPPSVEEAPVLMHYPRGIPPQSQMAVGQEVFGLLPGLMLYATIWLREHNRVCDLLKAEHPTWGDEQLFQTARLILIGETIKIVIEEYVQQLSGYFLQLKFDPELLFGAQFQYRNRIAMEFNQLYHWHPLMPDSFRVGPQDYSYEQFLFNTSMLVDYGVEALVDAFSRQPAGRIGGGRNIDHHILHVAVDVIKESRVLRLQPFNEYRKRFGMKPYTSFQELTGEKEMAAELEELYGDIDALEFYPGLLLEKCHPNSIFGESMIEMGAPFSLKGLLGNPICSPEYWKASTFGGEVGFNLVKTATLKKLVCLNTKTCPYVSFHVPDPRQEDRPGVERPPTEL
As to the kind of experiment: Cyclooxygenase inhibition assay (COX Fluorescent Inhibitor Screening Assay Kit), COX-1. It counts as biochemical. On the procedure: (§1) Stock solutions of test compounds are dissolved in a minimum volume of DMSO. 10 μl of various concentrations of the test compound solutions, e.g., [I]final between 0.01 and 100 μM, are added to a series of supplied reaction buffer solutions (150 μl, 100 mM Tris-HCl, pH 8.0) with either COX-1 or COX-2 (10 μl) enzyme in the presence of Heme (10 μl) and a fluorometric substrate (10 μl). The reactions are initiated by quickly adding 10 μl of arachidonic acid solution and then incubating the system for two minutes at room temperature. […] The intensity of this fluorescence is proportional to the amount of resorufin, which is proportional to the amount of PGG2 present in the well during the incubation. Percent inhibition is calculated by comparison from the 100% initial activity sample value (no inhibitor).
as §1, with “compounds were” for “compounds are”, “μM, were” for “μM, are”, “reactions were” for “reactions are”, “then incubated” for “then incubating the system”, “inhibition was” for “inhibition is”

The next test relates to LPS induced allodynia. The test can be described thus: Von Frey mechanical nociceptive assay, LPS induced model of inflammatory pain. The note with it: male SD rats, 10 mg/kg s.c. 60 minutes before intraplantar LPS, tested until 6 hours post LPS. The test is classed as in vivo. The protocol:
In vivo anti-allodynic effects of the COX-2/sEH dual inhibitors provided herein was assayed. An LPS induced model of inflammatory pain was used to compare the pain reducing activity of the COX-2/sEH dual inhibitors to combination and individual therapies.
Rats weighing approximately 250-300 grams are brought to the testing apparatus and allowed to acclimate for 30 minutes. After 30 minutes the rats are tested with a von Frey aesthesiometer for their non-treated baseline withdrawal latency to mechanical stimulation. The von Frey apparatus is a raised metal mesh platform that has clear acrylic chambers to enclose rats but allow them to move freely. A rigid tip von Frey probe is used to probe the plantar surface of the rat hind paw though the mesh floor to elicit a withdrawal response. The measures recorded are grams of force applied to the hind paw required to elicit a withdrawal. The pretreatment baseline score is considered the pain-free baseline (BL) and is assigned 100% for further response calculations. […] The measures are then calculated as a percent of the pretreatment baseline score.

The subject of test [1] is mouse aortic ring vessel sprouting. As to the kind of experiment: Mouse aortic ring assay. The note with it: FIG. 13. It counts as cell-based. The protocol: Mouse aorta ring assay was carried out using a slightly modified method described by Bellacen and Lewis (J Vis Exp, e1564). The 48-well plates were coated with 50 μL per well growth-factor reduced Matrigel at 37° C. for 30 min. The aorta of C57BL/6 mice was harvested, washed with cold serum-free F-12K medium 5-6 times, and cut to ˜1 mm length pieces. The aorta ring was put in the center area of Matrigel-coated 48-well plates, then another 100 μL Matrigel was added into each well and incubated at 37° C. for another 30 min. Complete endothelial EGM-2 culture medium (500 μL per well) with or without test compounds was added into each well, incubated in 37° C. incubators for 6-12 days, microscope image was recorded and analyzed by NIH Image J software.

Test [2] relates to VEGF-induced angiogenesis. The test can be described thus: In vivo angiogenesis assay (Matrigel plug). The note with it: C57BL/6 mice, n=6 per group, FIG. 15. On the procedure: Male C57BL/6 mice were purchased from Charles River Lab. After acclimation for 1 wk in a standard animal facility, the animals were lightly anesthesized using 1-4% isoflurane in oxygen (2 L/min) and placed on a heated stage to maintain body temperature at 37° C. Growth-factor reduced Matrigel (0.5 mL, BD Biosciences, San Jose, Calif.) mixed with 100 ng mouse VEGF 164 (R&D Systems, Minneapolis, Minn.), 20 U heparin (APP Pharmaceuticals, Schaumburg, Ill.), with or without test compounds were subcutaneously injected into the mice at the abdominal area. Each mouse was injected with two gels (with/without test compounds) symmetrically in the abdomen. After 4-7 days, the animals were euthanized and dissected to recover the implanted Matrigel plugs. Hemoglobin contents inside the Matrigel implants were analyzed by Drabkin's reagent (Sigma-Aldrich, St. Louis, Mont.).

The subject of another test is Met-1 breast cancer. As to the kind of experiment: In vivo Met-1 tumor growth. The following applies: FVB mice, 0.1 mg/kg/day by mini-pump, FIG. 16. The source says: Cells derived from highly metastatic breast cancer Met-1 will be transplanted into the fat pads of FVB female mice. […] Over this period, animals will be checked 3 times per week with ultrasound to mark changes in tumor growth and size. Ultrasound contrast agent microbubbles will also be administered during each ultrasound session by IV injection to track changes in tumor vasculature (Invest Radiol 46, 215-224).

The test system of test [3] is MMP activity in PC-3 cells. The test can be described thus: Matrix metalloproteinase (MMP) assay by zymography, PC-3 cells. The note with it: FIG. 17 left. The test is classed as cell-based. The protocol:
MMP activity in PC-3 and HUVEC cells were carried out by zymography (J Vis Exp, e2445). […] After that, the gels were incubated at renaturing buffer for 30 min, followed with incubation at zymography developing buffer for 30 min at room temperature, and replaced with fresh developing buffer and incubated at 37° C. overnight. The gels were stained by Coomassie blue, and images were recorded and analyzed by NIH Image J software.

pIC50: −log10 of the molar value. “Also recorded” adds a separate entry of the source. Some results are limits rather than exact numbers.

On ovine COX-1, `NS(=O)(=O)c1ccc(-n2nc(CCCNC(=O)Nc3ccc(C(F)(F)F)cc3)cc2-c2ccccc2)cc1` [Compound 21i, 4-(5-Phenyl-3-{3-[3-(4-trifluoromethyl-phenyl)-ureido]-propyl}-pyrazol-1-yl)-benzenesulfonamide] showed a pIC50 of less than 4.00. Besides, the inhibition at 100 µM at ovine COX-1 (read-out: COX-1 (% inhibition)) is 22.7%. The “Anti-allodynic effect, von Frey paw withdrawal, in words” value in the test on LPS induced allodynia is “better in vivo efficacy in a pain model in rats compared to celecoxib and t-AUCB combination therapy; also recorded: superior effect compared to the combination therapies; also recorded: superior anti-allodynic activity; also recorded: more efficient than the combination of celecoxib with t-AUCB”. In addition, in test [1], the “Vessel sprouting in mouse aortic ring assay, in words” value was “inhibited vessel sprouting in mouse aortic ring assay in a dose-dependent manner”. Also, in test [2], the “VEGF-induced angiogenesis, hemoglobin content inside the Matrigel, in words” value is on record as “inhibits VEGF-induced angiogenesis”. Further, the “Primary tumor growth of Met-1 breast cancer, in words” value in the test with Met-1 breast cancer was “inhibits primary tumor growth”. In addition, the “MMP activity, in words” value in test [3] is listed as “no effect on MMP activity”.
